Data from PMC10107917 (ACS Medicinal Chemistry Letters, 2023).
Bridge positions count the residues as written; N and C are the ends. Peptide text beside a SMILES is read from it.

Test: Stability in human serum (HPLC)
Assay type: in vitro ADME
Parameters: remaining at 5 h / remaining at 48 h: dose or concentration left out as unconfirmed
Conditions: 37 °C; for remaining at 5 h: after 5 h of incubation, read-out: intact peptide detected by HPLC; for state of peptide in human serum: after 24 h; for remaining at 48 h: after 48 h of incubation, read-out: initial concentration of peptide remaining unchanged (HPLC)
Description: Next, we examined the stabilities of inhibitors 3, 5, 6, and FI in human serum (Figure 6). As expected, both monocyclic peptides (3 and FI) were degraded more rapidly than bicyclic inhibitors 5 and 6. After 5 h of incubation, about 25% of intact peptide 3 and 15% of FI were detected by HPLC. […] By contrast, the bicyclic peptides were clearly more resistant and stable. About 59% and 28% (based on HPLC data) of the initial concentrations of peptide 5 and peptide 6, respectively, remained unchanged even after 48 h of incubation. […] This possible protease-driven degradation was not confirmed in any additional experiments and must be treated with caution. It might be also speculated that the observed decrease in concentrations of both bicyclic peptides is related to binding to serum proteins during the long incubation process and subsequent sample preparation before HPLC analysis, as mentioned elsewhere.[36] Generally, our results are in accordance with the widely recognized observation that macrocyclization of peptides increases their stability. […]
Next step was addition of appropriate peptide solution
(final concentration in well 100 µM) and 30 min incubation in 37 °C. After this time 10 µL substrate (100 µM final concentration) was added to the well. Percentage inhibition of the enzyme was calculated relative to the control sample without inhibitor.
Human serum from plasma (Sigma Aldrich, Germany) was prepared for the assay as referred previously.8 The experiments were carried out according to the procedure described before.2 The initial concentration of the peptide solutions was 1.54 mM. Each peptide solution was then diluted 10 times with human serum and incubated at 37 °C. Immediately after the start of incubation, 1, 2, 3, 5 and 24 […]
hours the samples of 200 μL were taken and mixed with 200 μL of acetonitrile to separate the human serum proteins. The formed precipitate was removed by centrifugation for 10 min at 13,000 rpm. The supernatant was stored in 3-4 °C for at least 1 hour before being analyzed by RP-HPLC (linear gradient 10-90% phase B, 40 min., Kinetex 5 μm XB-C18 100Å 150 x 4.6 mm) and MALDI-MS (Autoflex maX MALDI-TOF spectrometer, Bruker Daltonics, Germany). In order to determine peptide stability at each time point, the peptide peak area from recorded chromatograms was compared with the peptide peak area obtained directly after mixing peptide and plasma, and expressed as its percentage.
Molecular dynamics simulations […]
(Figure 5SA) bound to the furin active site were built based on the crystal structure of MT-SP1 in complex with SFTI-1 (PDB ID: 1P8J 2.0 Å) by aligning catalytic triad of both proteins in PyMOL, Molecular Graphics System, Version 2.0 Schrödinger, LLC software. Next, SFTI-1 peptide was replaced by one of the five designed ligands (Figure 5SB). Five resulting furin-inhibitor complexes were further used as starting structures for the molecular dynamic (MD) calculations.
The AMBER20 suite was used to perform MD simulations,9 ff14SBonlysc10 force field parameters were used. The initial complex structures were built in the xLeap module of AMBER20. The periodic boundary conditions with TIP3P11 octahedral water box and Na+ counterions were used. Two steps of energy minimization were performed: first 500 steepest descent and then 1000 conjugate gradient cycles with harmonic restraints of 10 kcal/mol/Å2 on the solute, next 3000 steepest descent and 3000 conjugate gradient cycles without restraints. Next, the systems were heated up to 300K for 10 ps in NVT ensemble followed by the simulations in NPT ensemble at the pressure of 105 Pa. Finally, five independent MD production runs of 100 ns for each furin-inhibitor complex were performed in NPT ensemble. The time integration step was 2 fs, the cutoff for non-bonded interactions was 8 Å, the SHAKE algorithm for the covalent bonds that included hydrogen atoms12 and the Particle Mesh Ewald procedure13 were used. The […]

remaining at 5 h	state of peptide in human serum	remaining at 48 h	SMILES
~15%	completely degraded		CC[C@H](C)[C@@H]1NC(=O)[C@@H]2CCCN2C(=O)[C@@H]2CCCN2C(=O)[C@H]([C@@H](C)CC)NC(=O)[C@H](CO)NC(=O)[C@H](CCCCN)NC(=O)[C@H](CCCCN)NC(=O)[C@@H](NC(=O)[C@H](CCCNC(=N)N)NC(=O)[C@@H](N)CCCCN)CSSC[C@@H](C(=O)N[C@@H](Cc2ccccc2)C(N)=O)NC1=O [FI, Lys-Arg-Cys(&)-Lys-Lys-Ser-Ile-Pro-Pro-Ile-Cys(&)-Phe-NH2, reference compound] (H-KRCKKSIPPICF-NH2; disulfide 3-11; N-terminus assumed)
~25%	completely degraded		CC[C@H](C)[C@@H]1NC(=O)[C@@H]2CCCN2C(=O)[C@@H]2CCCN2C(=O)[C@H]([C@@H](C)CC)NC(=O)[C@H](CO)NC(=O)[C@H](CCCCN)NC(=O)[C@H](CCCCN)NC(=O)[C@@H](NC(=O)[C@H](CCCNC(=N)N)NC(=O)[C@H](CCCNC(=N)N)NC(=O)[C@@H](N)CCCNC(=N)N)CSSC[C@@H](C(=O)N[C@@H](Cc2ccccc2)C(N)=O)NC1=O [inhibitor 3, Arg-Arg-Arg-Cys(&)-Lys-Lys-Ser-Ile-Pro-Pro-Ile-Cys(&)-Phe-NH2] (H-RRRCKKSIPPICF-NH2; disulfide 4-12)
		~59%	CC[C@H](C)[C@@H]1NC(=O)[C@@H]2CCCN2C(=O)[C@@H]2CCCN2C(=O)[C@H]([C@@H](C)CC)NC(=O)[C@H](CO)NC(=O)[C@H](CCCCN)NC(=O)[C@H](CCCCN)NC(=O)[C@@H]2CSSC[C@H](NC1=O)C(=O)N[C@@H](Cc1ccccc1)C(=O)N[C@@H](CCCCN)C(=O)N[C@@H](CCCNC(=N)N)C(=O)N[C@@H](CCCNC(=N)N)C(=O)N2 [inhibitor 5, &^1Lys-Arg-Arg-Cys(&^2)-Lys-Lys-Ser-Ile-Pro-Pro-Ile-Cys(&^2)-Phe&^1] (cyclo(KRRCKKSIPPICF); disulfide 4-12)
		~28%	CC[C@H](C)[C@@H]1NC(=O)[C@@H]2CCCN2C(=O)[C@@H]2CCCN2C(=O)[C@H]([C@@H](C)CC)NC(=O)[C@H](CO)NC(=O)[C@H](CCCCN)NC(=O)[C@H](CCCCN)NC(=O)[C@@H]2CSSC[C@H](NC1=O)C(=O)N[C@@H](Cc1ccccc1)C(=O)N[C@@H](CCCNC(=N)N)C(=O)N[C@@H](CCCNC(=N)N)C(=O)N[C@@H](CCCNC(=N)N)C(=O)N2 [inhibitor 6, &^1Arg-Arg-Arg-Cys(&^2)-Lys-Lys-Ser-Ile-Pro-Pro-Ile-Cys(&^2)-Phe&^1] (cyclo(RRRCKKSIPPICF); disulfide 4-12)
